Measured values reported in ChEMBL document CHEMBL4680293, “Tubulin inhibitory activity of a novel colchicine-binding compounds based on a dinaphthospiropyranran scaffold” (Bioorg Med Chem, 2021).
Calls of active or inactive are those of the source. The calls are words filed in the database; no cut-off is given here.

Biological target: Tubulin (Homo sapiens) (UniProt P68371+Q9H4B7+P0DPH7+P68366+Q13509+Q71U36+P04350+Q3ZCM7+P07437+P68363+Q9BQE3+Q6PEY2+Q13885+Q9BVA1+Q9BUF5)
Assay: Inhibition of tubulin (unknown origin) assessed as inhibition of tubulin polymerization at 10 uM measured for 50 mins by fluorescence based analysis
Type: protein-complex assay

inhibition, active:
CC[C@]1(O)C[C@@H]2CN(CCc3c([nH]c4ccccc34)[C@@](C(=O)OC)(c3cc4c(cc3OC)N(C)[C@H]3[C@@](O)(C(=O)OC)[C@H](OC(C)=O)[C@]5(CC)C=CCN6CC[C@]43[C@@H]65)C2)C1
C1=C2COCC3=Cc4c(ccc5ccccc45)OC23Oc2ccc3ccccc3c21
C1=C2CCC3=Cc4c(ccc5ccccc45)OC23Oc2ccc3ccccc3c21
